The values that follow come from PMC8705783, “The Effect of Conjugation with Octaarginine, a Cell-Penetrating Peptide on Antifungal Activity of Imidazoacridinone Derivative” (International Journal of Molecular Sciences, 2021).

Structures are written as SMILES. ≈ marks a conversion by molar mass, not a printed value. Where two headings read alike, the source gives them in different places.

The target in assay [1] is T1, yeast topoisomerase II (Saccharomyces cerevisiae, UniProt P06786). As to the kind of experiment: Formation of cleavable complexes in vitro. It is filed as biochemical. Particulars: 0.1-10 μM, pBR322 plasmid DNA. The protocol: Cleavage assay of yeast topoisomerase II was performed according to the formation of cleavable complexes kit from Inspiralis. The experimental conditions were the same as for the relaxation assay except for the amount of yeast topoisomerase II (16 times more enzyme was used). The reaction was initiated by the addition of the enzyme and allowed to proceed for 10 min at 30 °C. Then, 0.35% SDS and 0.3 mg mL^−1 proteinase K (A&A Biotechnology, Gdynia, Poland) was added, and the probes were incubated in 56 °C for 1 h. The reaction was terminated by the addition of 100 mM Tris-HCl pH 8, 10 mM EDTA, 0.5 mg mL^−1 Bromophenol Blue. Extraction with chloroform:isoamyl alcohol (24:1, by volume) was performed, and mixtures were analysed on the 1.2% agarose gel with 0.5 µg mL^−1 ethidium bromide in 1x TAE buffer, 18 h, 1.1 V cm^−1. Gel was photographed with the Gel Doc XR+Gel Documentation System.

Assay [2] has as its system Candida albicans Gu5. As to the kind of experiment: microbe, parasite or virus in culture.
The subject of assay [3] is Candida parapsilosis ATCC 22019. Description: microbe, parasite or virus in culture. The following applies: Lodderomyces parapsilosis, ATCC22019, 24 h, pH 7.
Assay [4] has as its system Saccharomyces cerevisiae ATCC 9763.
Assay [5] concerns Candida glabrata ATCC 90030. As to the kind of experiment: microbe, parasite or virus in culture. Particulars: Nakaseomyces glabratus, ATCC90030, 24 h, pH 7.
For assay [6], the system named is Candida albicans F5. Description: microbe, parasite or virus in culture.
The test system of assay [7] is Candida albicans B4. Description: microbe, parasite or virus in culture.
For assay [8], the system named is Candida albicans ATCC 10231. As to the kind of experiment: microbe, parasite or virus in culture.
Assay [9] deals with Saccharomyces cerevisiae ATCC 9763. As to the kind of experiment: microbe, parasite or virus in culture. Particulars: ATCC9763, 24 h, pH 7.
Assay [10] concerns Candida glabrata ATCC 90030.
The test system of assay [11] is Candida krusei ATCC 6258. Description: microbe, parasite or virus in culture. The following applies: Pichia kudriavzevii, ATCC6258, 24 h, pH 7.
Assay [12] deals with Candida parapsilosis ATCC 22019.
Assay [13] deals with Candida albicans F2. Description: microbe, parasite or virus in culture.
In assay [14] the test system is Candida albicans Gu4. Description: microbe, parasite or virus in culture.
Assay [15] deals with C. albicans ATCC 10231 cells. Description: Fluorescence microscopy of uptake and accumulation. Particulars: 256 μg mL^−1 (8 × MFC of Compound 1-R8).
Description: Candida albicans ATCC 10231 strain were grown in the YPG medium overnight (16–18 h) at 30 °C, washed twice with sterile phosphate-buffered saline (PBS) and resuspended in RPMI 1640 at a cell density of 2 × 10^7 cells mL^−1. The inoculum (5 mL) was added to 5 mL RPMI 1640 with 256 μg mL^−1 of tested compounds. After appropriate period of time, 2 mL of cell suspension was washed three times with sterile phosphate-buffered saline (PBS). If appropriate, cells where resuspended in 1 mL of PBS and 5 μL of 2 mg mL^−1 propidium iodide (PI, Sigma-Aldrich, St. Louis, MO, USA) were added and incubated for 30 min and then rinsed three times with PBS buffer. After that, cells were resuspended in 5 μL 90% (by volume) glycerol/10% (by volume) 1 × PBS and transferred to a microscopic slide. The cells were examined with the Olympus BX-60 fluorescence microscope (λex = 330–385 nm, λem ≥ 420 nm, lens × 40) equipped with the Olympus XC50 digital camera (Olympus Corporation, Tokyo, Japan) or LSM800 T-PMT confocal microscope with a CCD camera (ZEISS, Göttingen, Germany). Images were analysed and processed with cellSens Dimension and ZEN Blue software [47].
Another assay relates to reference strains. Description: Antifungal activity, summary over reference strains. Format: cell-based. Also noted: key to Antifungal Activity (level): (−) Means no antifungal activity; (±) low activity; (+) moderate activity; (++) high activity at the concentration mentioned.
The test system of assay [16] is Candida krusei ATCC 6258.
Assay [17] deals with T1, yeast topoisomerase II. Description: Yeast topoisomerase II relaxation assay. Format: biochemical. Particulars: supercoiled pBR322, tested at 1-200 μM. The protocol:
Due to the known activity of acridine and acridone derivatives as human topoisomerase inhibitors widely analysed for cancer chemotherapy, we decided to analyse the influence of Compound 1 as well as its R8 conjugate on the fungal equivalent of that enzyme. The relaxation of supercoiled plasmid DNA by yeast topoisomerase II (yTOPO II) was studied in the presence of different concentrations of both compounds.
The inhibition of yeast topoisomerase II was analysed according to the relaxation assay kit from Inspiralis (Inspiralis Limited, Norwich, UK). Briefly, 250 ng of supercoiled pBR322 DNA (Thermo Fisher Scientific, Waltham, MA, USA), 1 mM ATP (Inspiralis Limited, UK), and 1–200 μM of the analysed compound were mixed with reaction buffer (1 mM Tris-HCl (pH 7.9), 10 mM KCl, 0.5 mM MgCl2, 0.2 % (by volume) glycerol). The reaction was initiated by the addition of an enzyme, allowed to proceed at 30 °C for 30 min and terminated by addition of 40% (m/V) sucrose, 100 mM Tris-HCl pH 8, 10 mM EDTA, and 0.5 mg mL^−1 Bromophenol Blue. Two-step extraction with chloroform:isoamyl alcohol (24:1, by volume) and butanol water was performed and mixtures were analysed on 1% agarose gel in 1 × TAE buffer, 3h, 4.5 V cm^−1. Gel was stained in GelRed 3 × staining solution (Biotium, Fremont, CA, USA) for 30 min and photographed with Gel Doc XR+Gel Documentation System (Bio-Rad: Hercules, CA, USA).

In the next assay the test system is HEPG2. Description: cells. It is filed as cell-based, human. The protocol: (§1) The investigated compounds were screened for their in vitro antiproliferative activity towards a human embryonic kidney cell line (HEK-293) and human liver cancer cell line (HEPG2) using colorimetric MTT.
(§2) The human embryonic kidney cell line (HEK-293) and human liver cancer cell line (HEPG2) were purchased from ATCC (Manassas, Virginia, USA). HEK-293 was cultured in Dulbecco’s Modified Eagle Medium (Corning, NY, USA) and HEPG2 in Minimum Essential Medium Eagle (Corning, NY, USA). For each cell line, the culture medium was supplemented with 10% fetal bovine serum, 2 mM L-glutamine, and antibiotics: penicillin 62.6 µg mL^−1 and streptomycin 40 µg mL^−1. The cells were cultured at the humidified atmosphere of 5% CO2/95% air and routinely tested for Mycoplasma contamination.
(§3) Antiproliferative activity of the compounds was determined by (3-(4,5-dimethylthiazol-2-yl)-2,5-diphenyltetrazolium bromide (MTT, Sigma-Aldrich, St. Louis, MO, USA) assay, which involves the assessment of cell viability by the measurement of the cellular oxidoreductase activity. Briefly, cells were seeded into 96-well culture plates and were allowed to adhere overnight. The investigated compounds were dissolved in DMSO and added to wells (1% final concentration of DMSO) in various concentrations. After 72 h incubation, 20 µL of MTT solution in PBS (4 mg mL^−1) was added to each well, and plates were incubated for an additional 3h in standard culture conditions. After that, the medium was aspirated, and formazan crystals were dissolved in DMSO. The absorbance was determined at 570 nm with a microplate reader (Asys UVM 340 Microplate Reader, Biochrom, Cambridge, UK). All experiments were performed three times independently in triplicate.

The test system of another assay is HEK-293. Description: cells. Format: cell-based, human. The protocol:
as §1, §2, §3

Assay [18] concerns Candida albicans B3. Description: microbe, parasite or virus in culture.
Assay [19] concerns Candida albicans ATCC 10231.
Assay [20] deals with Candida albicans B3. Particulars: B3, 12 h.
In assay [21] the test system is Candida albicans F2. Particulars: F2, 12 h.
In assay [22] the test system is Candida albicans Gu4. Particulars: Gu4, 12 h.
Assay [23] deals with Candida albicans Gu5. Particulars: Gu5, 12 h.
The test system of another assay is C. glabrata DSM 11226. As to the kind of experiment: microbe, parasite or virus in culture. Format: cell-based. The following applies: DSM 11226. The protocol: (§4) To establish the possible mode of action for Compound 1-R8, we have analysed the killing activity and determined minimal fungicidal concentrations (MFCs) (Table 4). Additionally, killing kinetics analysis against pathogenic C. albicans ATCC 10231 was performed (Figure 2).
(§5) Minimum fungicidal concentrations (MFCs) were determined as described previously by spot assay. The MFC was determined as the lowest concentration of the test compound in which no recovery of microorganisms was observed.

The next assay has as its system C. krusei DSM 6128. As to the kind of experiment: microbe, parasite or virus in culture. It is filed as cell-based. Particulars: DSM 6128. Here is the method:
as §4, §5

The test system of the next assay is C. parapsilosis DSM 5784. As to the kind of experiment: microbe, parasite or virus in culture. Format: cell-based. Particulars: DSM 5784. Here is the method: as §4, §5
Another assay relates to C. albicans ATCC 10231. As to the kind of experiment: microbe, parasite or virus in culture. Format: cell-based. The following applies: ATCC 10231. The protocol:
as §4, §5

For assay [24], the system named is reference and fluconazole-resistant clinical strains. Particulars: 12 h.
The test system of assay [25] is Candida albicans F5. The following applies: F5, 12 h.
Assay [26] has as its system Candida albicans B4. The following applies: B4, 12 h.
For a further assay, the system named is S. cerevisiae ATCC 9763. As to the kind of experiment: Minimal fungicidal concentration, spot assay. It is filed as cell-based. Particulars: minimal fungicidal concentration that kills 99% of cells. The protocol: as §4, §5
The target in assay [27] is T1, yeast topoisomerase II. Also noted: method as in PMID 33572407. The following applies: read-out: IC50 (yeast topoisomerase II relaxation); cited from earlier work.

T1 sequence (P06786 whole entry): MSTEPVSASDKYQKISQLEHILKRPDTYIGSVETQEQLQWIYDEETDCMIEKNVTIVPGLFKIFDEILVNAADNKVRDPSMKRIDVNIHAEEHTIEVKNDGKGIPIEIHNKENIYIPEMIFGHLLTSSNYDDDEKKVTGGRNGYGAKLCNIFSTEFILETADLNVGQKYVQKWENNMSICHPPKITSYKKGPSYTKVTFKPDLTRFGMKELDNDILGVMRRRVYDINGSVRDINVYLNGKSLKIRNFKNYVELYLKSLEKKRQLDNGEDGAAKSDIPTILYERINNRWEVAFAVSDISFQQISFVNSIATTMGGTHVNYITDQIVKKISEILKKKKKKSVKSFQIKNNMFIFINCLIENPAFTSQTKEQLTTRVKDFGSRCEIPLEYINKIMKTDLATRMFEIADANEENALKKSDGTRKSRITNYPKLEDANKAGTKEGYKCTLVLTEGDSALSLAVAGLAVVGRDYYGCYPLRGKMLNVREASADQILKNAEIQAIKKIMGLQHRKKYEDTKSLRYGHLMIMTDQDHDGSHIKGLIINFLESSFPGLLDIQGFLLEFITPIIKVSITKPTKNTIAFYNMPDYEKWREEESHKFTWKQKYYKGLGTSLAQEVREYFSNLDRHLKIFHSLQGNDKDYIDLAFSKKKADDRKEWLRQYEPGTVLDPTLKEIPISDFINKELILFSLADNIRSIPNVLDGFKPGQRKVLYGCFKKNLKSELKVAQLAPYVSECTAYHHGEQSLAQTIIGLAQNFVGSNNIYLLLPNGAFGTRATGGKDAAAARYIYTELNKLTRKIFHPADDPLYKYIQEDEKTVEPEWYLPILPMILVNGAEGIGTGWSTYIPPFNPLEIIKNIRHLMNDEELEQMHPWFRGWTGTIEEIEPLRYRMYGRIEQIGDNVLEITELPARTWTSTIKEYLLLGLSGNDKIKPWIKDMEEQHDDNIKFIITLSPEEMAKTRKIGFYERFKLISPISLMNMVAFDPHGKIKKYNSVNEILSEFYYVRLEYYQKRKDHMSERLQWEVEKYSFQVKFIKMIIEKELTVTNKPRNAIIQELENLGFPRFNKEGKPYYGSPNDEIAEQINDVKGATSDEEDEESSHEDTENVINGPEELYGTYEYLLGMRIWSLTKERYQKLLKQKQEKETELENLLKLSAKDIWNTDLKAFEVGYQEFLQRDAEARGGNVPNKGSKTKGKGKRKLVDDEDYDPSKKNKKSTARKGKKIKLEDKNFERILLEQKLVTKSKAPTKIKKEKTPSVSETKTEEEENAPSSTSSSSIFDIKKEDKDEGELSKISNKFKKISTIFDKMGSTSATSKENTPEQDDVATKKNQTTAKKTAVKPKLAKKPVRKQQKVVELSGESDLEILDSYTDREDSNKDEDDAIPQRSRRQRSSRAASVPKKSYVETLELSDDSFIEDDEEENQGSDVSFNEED

Consider `NCCNc1ccc2ncn3c4ccc(O)cc4c(=O)c1c23` [Compound 1, 5-((2-Aminoethyl)amino)-8-hydroxy-6H-imidazo[4,5,1-de]acridin-6-one], for which, on yeast topoisomerase II [1], the “formation of DNA–yeast topoisomerase II cleavable complexes” value is recorded as “stimulated the formation of DNA–yeast topoisomerase II cleavable complexes”. Further, the MIC90 (against Candida albicans Gu5 [2]; in assay [3]; in [5]; with Candida albicans F5 [6]; with Candida albicans B4 [7]; in [8] (ATCC10231)) was more than 64 µg/mL in each case. The MIC90 in [8] (ATCC10231, 24 h, pH 7) is more than 64 µg/mL; in assay [9] it was more than 64 µg/mL; in the assay on Candida krusei ATCC 6258 [11], more than 64 µg/mL; in the assay on Candida albicans F2 [13], more than 64 µg/mL; in the assay with Candida albicans Gu4 [14] it was more than 64 µg/mL; against Candida albicans B3 [18], more than 64 µg/mL. For the same molecule, the “IC50 HEK293/MIC90 (mycostatic selectivity index)” value is given as less than 0.0058 in assay [4] (HEK293 vs Saccharomyces cerevisiae ATCC 9763); less than 0.0058 in assay [10] (HEK293 vs Candida glabrata ATCC 90030); less than 0.0058 in assay [12] (HEK293 vs Candida parapsilosis ATCC 22019); less than 0.0058 in the assay on Candida krusei ATCC 6258 [16] (HEK293 vs Candida krusei ATCC 6258); less than 0.0058 in assay [19] (HEK293 vs Candida albicans ATCC 10231, MIC converted to micromolar). In addition, the “IC50 HEPG2/MIC90 (mycostatic selectivity index)” value (in assay [4] (HEPG2 vs Saccharomyces cerevisiae ATCC 9763); in assay [10] (HEPG2 vs Candida glabrata ATCC 90030); in assay [12] (HEPG2 vs Candida parapsilosis ATCC 22019); in the assay with Candida krusei ATCC 6258 [16] (HEPG2 vs Candida krusei ATCC 6258); in assay [19] (HEPG2 vs Candida albicans ATCC 10231)) was less than 0.0038 each time. The “uptake and accumulation in fungal cells” value in assay [15] is listed as “no significant accumulation”. Moreover, the “Antifungal Activity (level)” value with reference strains (Table 3) is “−”. Moreover, in the assay with reference strains (as reported in Table 1), the “antifungal activity” value is “no antifungal activity was observed”. Moreover, at yeast topoisomerase II [17], the “concentration that totally inhibited yeast topoisomerase II-mediated relaxation” value was 50 µM. In addition, the half-inhibitory concentration (IC50) (in general, the concentration needed to halve the response being measured) in the assay with HEPG2 (Homo sapiens, HEPG2, 72 h treatment, MTT, ± SD, read-out: IC50 (antiproliferative activity)) worked out at 364 ± 13 nM; in the assay on HEK-293 (Homo sapiens, HEK293, 72 h treatment, MTT, ± SD, read-out: IC50 (antiproliferative activity)), 550 ± 125 nM.

`N=C(N)NCCC[C@H](NC(=O)[C@H](CCCNC(=N)N)NC(=O)[C@H](CCCNC(=N)N)NC(=O)[C@H](CCCNC(=N)N)NC(=O)[C@H](CCCNC(=N)N)NC(=O)[C@H](CCCNC(=N)N)NC(=O)[C@H](CCCNC(=N)N)NC(=O)[C@@H](N)CCCNC(=N)N)C(=O)NCCNc1ccc2ncn3c4ccc(O)cc4c(=O)c1c23` [Compound 1-R8]: the MIC90 against Candida albicans B3 [20] worked out at 2 µg/mL (≈ 1.3 µM); in [4] (ATCC 9763, 24 h, pH 7), 1 µg/mL (≈ 0.648 µM); in the assay on Candida albicans F2 [21], 1 µg/mL (≈ 0.648 µM); against Candida albicans Gu4 [22] it was 2 µg/mL (≈ 1.3 µM); in assay [10] (ATCC 90030, 24 h, pH 7), 4 µg/mL (≈ 2.59 µM); against Candida albicans Gu5 [23], 2 µg/mL (≈ 1.3 µM). The MIC90 in assay [12] (ATCC 22019, 24 h, pH 7) stood at 0.25 µg/mL (≈ 0.162 µM); in the assay with Candida krusei ATCC 6258 [16] (ATCC 6258, 24 h, pH 7), 0.5 µg/mL (≈ 0.324 µM); in the assay on Candida albicans F5 [25], 1 µg/mL (≈ 0.648 µM); in assay [19] (ATCC 10231, 24 h, pH 7), 1 µg/mL (≈ 0.648 µM); with Candida albicans B4 [26] it was 2 µg/mL (≈ 1.3 µM). The MFC against C. glabrata DSM 11226 is 128 µg/mL (≈ 82.9 µM); against C. krusei DSM 6128 it was 16 µg/mL (≈ 10.4 µM); in the assay on C. parapsilosis DSM 5784, 8 µg/mL (≈ 5.18 µM); in the assay with C. albicans ATCC 10231, 32 µg/mL (≈ 20.7 µM); against S. cerevisiae ATCC 9763, 2 µg/mL (≈ 1.3 µM). Moreover, the IC50 in the assay on HEPG2 (72 h) came out at 991 ± 97 nM; in the assay on HEK-293 (72 h), 1390 ± 99 nM. The same molecule showed an MICs in [24] not above 4 µg/mL.

Turning to `COc1cc(NS(C)(=O)=O)ccc1Nc1c2ccccc2nc2ccccc12` [m-AMSA], on yeast topoisomerase II [27], the 50% inhibitory concentration (IC50) was more than 200000 nM.
